According to patent US8895746B2 (University of Central Florida Research Foundation, Inc., priority 2009, dated 2014):

Experiments:
Stat3:EGFR immunecomplex = target: T1, Stat3:EGFR immunecomplex (Homo sapiens, UniProt P40763); assay: Direct treatment of EGFR and Stat3 immunecomplexes from Panc-1 lysates, Western blotting; format: biochemical; details: 0-100 M, 3 h
T1 construct: precipitated from whole-cell lysates of untreated Panc-1 cells; endogenous in cells; host or cells: Panc-1 cells (immunoprecipitates from whole-cell lysates)
T1 sequence (P40763 2-770 limits assumed, one chain of several): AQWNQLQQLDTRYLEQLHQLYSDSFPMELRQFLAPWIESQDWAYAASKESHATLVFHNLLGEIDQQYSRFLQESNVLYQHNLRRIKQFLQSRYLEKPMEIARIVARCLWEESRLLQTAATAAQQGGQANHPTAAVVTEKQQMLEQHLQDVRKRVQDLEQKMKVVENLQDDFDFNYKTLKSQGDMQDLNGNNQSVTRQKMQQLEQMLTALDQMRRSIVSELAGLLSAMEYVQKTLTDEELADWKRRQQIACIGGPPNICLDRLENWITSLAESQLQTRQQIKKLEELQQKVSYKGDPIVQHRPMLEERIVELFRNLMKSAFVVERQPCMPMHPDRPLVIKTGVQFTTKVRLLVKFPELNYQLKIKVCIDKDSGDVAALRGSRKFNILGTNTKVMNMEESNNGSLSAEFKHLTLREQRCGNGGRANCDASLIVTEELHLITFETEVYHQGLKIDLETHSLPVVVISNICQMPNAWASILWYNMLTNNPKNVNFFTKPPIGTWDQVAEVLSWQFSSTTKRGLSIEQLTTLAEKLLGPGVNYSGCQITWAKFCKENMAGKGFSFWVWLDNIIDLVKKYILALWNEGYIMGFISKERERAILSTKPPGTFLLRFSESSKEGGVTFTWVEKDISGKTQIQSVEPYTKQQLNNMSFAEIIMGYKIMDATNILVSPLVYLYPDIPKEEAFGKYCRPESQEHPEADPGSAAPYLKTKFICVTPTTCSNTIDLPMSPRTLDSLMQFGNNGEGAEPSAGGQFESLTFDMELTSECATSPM
Protocol: (§1) Immunoprecipitation from whole-cell lysates and SDS/PAGE and Western blotting analysis were performed as previously described (33,38).
The EGFR levels in the immunecomplexes remained unchanged (FIG. 4B(ii), upper band). […] The Stat3 levels in the immunecomplexes remained unchanged (FIG. 4B(ii), i.p. Stat3, blot Stat3).

[1] = system: Stat3-null MEFs (Stat3−/−); assay: CyQuant cell viability; format: cell-based, mouse
From the text: (§2) Aberrant Stat3 promotes malignant cell proliferation, survival and malignant transformation (10, 20, 42). Given that S3I201.1066 disrupts Stat3 activation, we asked the question whether this agent is able to selectively decrease the viability and growth of malignant cells that harbor aberrant Stat3 activity.

NIH3T3 = assay: CyQuant cell viability; format: cell-based, mouse
From the text: as §2

Stat3 = assay: Intracellular Stat3 activation: EMSA of nuclear extracts from treated NIH3T3/v-Src, Panc-1 and MDA-MB-231 cells; format: cell-based, mouse, human; details: 50 μM, 24 h, Panc-1, MDA-MB-231
Protocol: Nuclear extract preparations and electrophoretic mobility shift assay (EMSA) were carried out as previously described (28,33). The ^32P-labeled oligonucleotide probes used were hSIE (high affinity sis-inducible element from the c-fos gene, m67 variant, 5′[…]; SEQ ID NO:5) that binds Stat1 and Stat3 (34) and MGFe (mammary gland factor element from the bovine β-casein gene promoter, 5′-[…]; SEQ ID NO:6) for Stat1 and Stat5 binding (35,36). Except where indicated, nuclear extracts were pre-incubated with compound for 30 min at room temperature prior to incubation with the radiolabeled probe for 30 min at 30° C. before subjecting to EMSA analysis. Bands corresponding to DNA-binding activities were scanned and quantified for each concentration of compound using ImageQuant and plotted as percent of control (vehicle) against concentration of compound, from which the IC50 values were derived, as previously reported (37).
Stat3 is constitutively activated in a variety of malignant cells, including human breast and pancreatic cancer cells (9, 10, 20).
Twenty-four hours after treatment, nuclear extracts were prepared from cells and subjected to Stat3 DNA-binding assay in vitro using the radiolabeled hSIE probe and analyzed by EMSA.

[2] = system: Src (pY416Src), Jak1 (pJak), Shc (pShc), and Erk1/2 (pErk1/2); assay: Western blot of phosphorylation of Src, Jak1, Shc, Erk1/2 in NIH3T3/v-Src and Panc-1 cells; format: cell-based, mouse, human
Protocol: as §1
We infer that […].

[3] = system: MDA-MB-231, Panc-1 and NIH3T3/v-Src cells; assay: Wound healing assay for migration; format: cell-based, human, mouse
From the text: (§3) Wounds were made using pipette tips in monolayer cultures of cells in six-well plates. […] The migration of cells was visualized at a 10× magnification using an Axiovert 200 Inverted Fluorescence Microscope (Zeiss, Göttingen Germany), with pictures taken using a mounted Canon Powershot A640 digital camera (Canon USA, Lake Success, N.Y.). Cells that migrated into the denuded area were quantified. Mice and in vivo tumor studies-Six-week-old female athymic nude mice were purchased from Harlan and maintained in the institutional animal facilities approved by the American Association for Accreditation of Laboratory Animal Care. Athymic nude mice were injected subcutaneously in the left flank area with 5×10^6 human breast cancer MDA-MB-231 cells in 100 μL of PBS. After 5 to 10 days, tumors of a diameter of 3 mm were established. […] Tumor volume was calculated according to the formula V=0.52×a^2×b, where a, smallest superficial diameter, b, largest superficial diameter.

[4] = system: Stat3-dependent luciferase reporter (pLucTKS3); assay: Stat3-dependent luciferase reporter in NIH3T3/v-Src; format: cell-based, mouse; details: NIH3T3/v-Src stably expressing pLucTKS3; 36-h treatment
From the text: Positions of STATs:DNA complexes or proteins in gel are labeled; control lanes (0) represent nuclear extracts treated with 0.05% DMSO, or nuclear extracts or whole-cell lysates prepared from 0.05% DMSO-treated cells. Data are representative of 3-4 independent determinations. **—<0.01;
Normal mouse fibroblasts (NIH3T3) and counterparts transformed by v-Src (NIH3T3/v-Src), v-Ras (NIH3T3/v-Ras) or overexpressing the human epidermal growth factor (EGF) receptor (NIH3T3/hEGFR), and the human breast cancer (MDA-MB-231) and pancreatic cancer (Panc-1) cells have all been previously reported (15,27-29). The normal human pancreatic duct epithelial cells (HPDEC) was a kind gift from Dr. Tsao, (OCI, UHN-PMH, Toronto) (30), Stat3 knockout mouse embryonic fibroblasts was generously provided by Dr. Poli (31), and the mouse thymic epithelial stromal cells (TE-71) was a generous gift from Dr. Farr (32). The Stat3dependent reporter, pLucTKS3 and the v-Src transformed mouse fibroblasts that stably express pLucTKS3 have been previously reported (15, 33). Cells were grown in Dulbecco's modified Eagle's medium (DMEM) containing 10% heat-inactivated fetal bovine serum, or in the case of HPDEC, they were grown in Keratinocyte-SFM media supplemented with 0.2 ng EGF, 30 μg/ml bovine pituitary extract and containing antimycol.

Stat3 SH2 domain = target: T2, Stat3 SH2 domain (Mus musculus, UniProt P42227); assay: EMSA of Stat3 DNA-binding with added purified His-tagged Stat3 SH2 domain; format: biochemical, murine; details: 1-500 ng His-SH2; full recovery at 125-500 ng
T2 construct: Purified histidine-tagged Stat3 SH2 domain (His-SH2) was added at increasing concentrations (1-500 ng); SUMO (vector pET SUMO); made in house; host or cells: E. coli BL21(DE3)
T2 sequence (P42227 580-670 limits assumed): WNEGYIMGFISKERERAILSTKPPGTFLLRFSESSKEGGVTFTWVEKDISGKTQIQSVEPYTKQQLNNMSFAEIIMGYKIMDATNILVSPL
From the text: Coding regions for the murine Stat3 protein and Stat3 SH2 domain were amplified by PCR and cloned into vectors pET-44 Ek/LIC (Novagen) and pET SUMO (Invitrogen), respectively.

NIH3T3/v-Ras fibroblasts = assay: Wound healing assay for migration; format: cell-based, mouse; details: same treatment conditions
From the text: as §3

Cc1ccc(S(=O)(=O)N(C)CC(=O)N(Cc2ccc(C3CCCCC3)cc2)c2ccc(C(=O)O)c(O)c2)cc1 [S3I-201.1066]
EGFR levels in directly treated Stat3 immunecomplex (Stat3:EGFR immunecomplex): strongly reduced EGFR levels
level of Stat3 present in directly treated EGFR immunecomplex (Stat3:EGFR immunecomplex): dramatically diminished
levels of Shc or Grb 2 in directly treated EGFR immunecomplex (Stat3:EGFR immunecomplex): no visible changes
derived IC60 values, viability [1]: > 200 μMm
derived IC60 values, viability (NIH3T3): > 200 μMm
constitutive Stat3 activation in treated cells (Stat3): significant inhibition
pJak1 level in Panc-1 cells ([2]; 100 μM, Panc-1): disappearance of pJak1 level
inhibitory effect on phosphorylation of Src, Jak1, Erk1/2MAPK and Shc ([2]; 30-50 μM): minimum inhibitory effect
phosphorylation of Src, Jak1, Shc and Erk1/2 ([2]; 24 h, NIH3T3/v-Src and Panc-1): no significant effects
numbers of cells migrating into the denuded area ([3]; 30 µM): statistically lower numbers
numbers of cells migrating into the denuded area ([3]; 12-24 h treatment): Significantly reduced numbers
apoptosis of the treated cells ([3]; 12-24 h treatment, data not shown): no evidence of apoptosis
numbers of cells migrating into the denuded area ([3]; 50 or 100 μM): strongly reduced numbers
induction of the Stat3-dependent reporter [4]: significantly (p<0.01) repressed
inhibition of Stat3 DNA-binding activity in presence of increasing purified His-SH2 domain (Stat3 SH2 domain): progressively eliminated
migration (NIH3T3/v-Ras fibroblasts): minimally affected
